Measurements as given in patent US11634412B2, “3-phosphoglycerate dehydrogenase inhibitors and uses thereof” (Raze Therapeutics, Inc., priority 2016, dated 2023).

biological target: T1, Full length (FL) 3-Phosphoglycerate Dehydrogenase (PHGDH) (Homo sapiens, UniProt O43175); experiment: Full length (FL) PHGDH Diaphorase coupled assay (500 uM NAD); assay type: biochemical; conditions: full-length PHGDH 5 nM, 30° C. 60 minutes, resorufin fluorescence
T1 construct: Full length (FL) 3-Phosphoglycerate Dehydrogenase (PHGDH) Diaphorase coupled assay (500 uM NAD)
T1 sequence (O43175 1-533): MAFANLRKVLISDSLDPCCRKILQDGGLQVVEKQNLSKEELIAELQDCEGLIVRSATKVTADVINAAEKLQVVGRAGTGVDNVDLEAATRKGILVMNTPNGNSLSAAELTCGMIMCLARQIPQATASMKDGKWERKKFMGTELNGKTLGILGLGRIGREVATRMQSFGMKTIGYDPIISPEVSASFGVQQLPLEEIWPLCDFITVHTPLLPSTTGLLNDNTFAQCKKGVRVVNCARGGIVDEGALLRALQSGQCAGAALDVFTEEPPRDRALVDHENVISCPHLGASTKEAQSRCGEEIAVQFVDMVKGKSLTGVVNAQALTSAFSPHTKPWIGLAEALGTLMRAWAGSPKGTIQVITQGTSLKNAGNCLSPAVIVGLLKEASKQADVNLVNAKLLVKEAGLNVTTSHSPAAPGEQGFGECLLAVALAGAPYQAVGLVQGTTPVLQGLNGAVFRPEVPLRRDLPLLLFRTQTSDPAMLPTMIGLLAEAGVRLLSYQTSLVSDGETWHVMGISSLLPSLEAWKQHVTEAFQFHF
Experimental: Full length (FL) 3-Phosphoglycerate Dehydrogenase (PHGDH) Diaphorase coupled assay (500 uM NAD)
PHGDH activity was determined by detecting the NADH produced during the reaction. Diaphorase was used to catalyze the oxidation of NADH with the concomitant reduction of resazurin to the fluorescent product resorufin. Resorufin fluorescence quantitatively reflected the production of NADH by the PHGDH reaction. To drive the forward reaction, two enzymes in the serine synthesis pathway subsequent to PHGDH, Phosphoserine aminotransferase (PSAT1) and phosphoserine phosphatase (PSPH) were also added to the reaction.
Briefly, serial dilution of compounds were incubated in a volume of 20 μL in 384 well plates with the assay mixture containing 5 nM PHGDH, 500 nM PSAT1, 500 nM PSPH, 500 μM NAD^+, 80 uM 3-phosphoglycerate, 1 mM glutamate, 57 uM Resazurin and 0.2 mg/ml Diaphorase in assay buffer containing 50 mM Trisethanoloamine (TEA) pH8.0, 10 mM MgCl2, 0.01% Tween-20 and 0.05% Bovine Serum Albumin (BSA). The plate was then incubated at 30° C. for 60 minutes and resorufin fluorescence was measured at emission wavelength 598 nm following excitation at 525 nm. The positive control consisted of the complete reaction mixture with 4% DMSO and was set to 0% inhibition.

SMILES | IC50 [nM]
Cn1c(C(=O)NC2(c3ccc(C4(C(=O)O)CCOC4)cc3)COC2)cc2c(Cl)c(Cl)ccc21 (racemic) [I-2 e125] | 1 to 1000
Cn1c(C(=O)NC2(c3ccc(C(CC4CC4)C(=O)O)cc3)COC2)cc2c(Cl)c(Cl)ccc21 (racemic) [I-3 e124] | 1 to 1000
COc1cc2c(cc(C(=O)NC3(c4ccc(C(CC5CC5)C(=O)O)cc4)COC3)n2C)c(Cl)c1Cl (racemic) [I-4 e123] | 1 to 1000
COc1cc2c(cc(C(=O)NC3(c4ccc(C(C(=O)O)C5CCC5)cc4)COC3)n2C)c(Cl)c1Cl (racemic) [I-7 e117] | 1 to 1000
Cn1c(C(=O)NC2(c3ccc(C(C(=O)O)C4CCC4)cc3)COC2)cc2c(Cl)c(Cl)ccc21 (racemic) [I-8 e116] | 1 to 1000
CC(C)CC(C(=O)O)c1ccc(C2(NC(=O)c3cc4c(Cl)c(Cl)ccc4n3C)COC2)cc1 (racemic) [I-9 e137, (±)-2-(4-(3-(4,5-Dichloro-1-methyl-1H-indole-2-carboxamido)oxetan-3-yl)phenyl)-4-methylpentanoic acid] | 1 to 1000
Cn1c(C(=O)NC2(c3ccc(C(C(=O)O)C4CCC4)cc3)CCOC2)cc2c(Cl)c(Cl)ccc21 (racemic) [I-12 e86] | 1 to 1000
COc1ccc2c(cc(C(=O)NC3(c4ccc(C(C(=O)O)C5CCC5)cc4)COC3)n2C)c1Cl (racemic) [I-13 e111] | 1 to 1000
CCC(C(=O)O)c1ccc(C2(NC(=O)c3cc4c(Cl)c(Cl)c(OC)cc4n3C)COC2)cc1 (racemic) [I-14 e113] | 1 to 1000
Cn1c(C(=O)NC2(c3ccc(C(C(=O)O)C4CC4)cc3)CCOC2)cc2c(Cl)c(Cl)ccc21 (racemic) [I-15 e162, (±)-2-Cyclopropyl-2-(4-(3-(4,5-dichloro-1-methyl-1H-indole-2-carboxamido)tetrahydrofuran-3-yl)phenyl)acetic acid] | 1 to 1000
Cn1c(C(=O)NC2(c3ccc(C(C(=O)O)C4CCCC4)cc3)CCOC2)cc2c(Cl)c(Cl)ccc21 (racemic) [I-16 e87] | 1 to 1000
CCCC(C(=O)O)c1ccc(C2(NC(=O)c3cc4c(Cl)c(Cl)c(OC)cc4n3C)CCOC2)cc1 (racemic) [I-17 e85] | 1 to 1000
CCCC(C(=O)O)c1ccc(C2(NC(=O)c3cc4c(Cl)c(Cl)ccc4n3C)CCOC2)cc1 (racemic) [I-18 e84] | 1 to 1000
CC(C)C(C(=O)O)c1ccc(C2(NC(=O)c3cc4c(Cl)c(Cl)ccc4n3C)CCOC2)cc1 (racemic) [I-19 e94] | 1 to 1000
COc1cc2c(cc(C(=O)NC3(c4ccc(C(C(=O)O)C(C)C)cc4)CCOC3)n2C)c(Cl)c1Cl (racemic) [I-20 e83] | 1 to 1000
COc1ccc2c(cc(C(=O)NC3(c4ccc(C(C(=O)O)C(C)C)cc4)COC3)n2C)c1Cl (racemic) [I-21 e127] | 1 to 1000
COc1cc2c(cc(C(=O)NC3(c4ccc(C(C(=O)O)C5CCCC5)cc4)COC3)n2C)c(Cl)c1Cl (racemic) [I-22 e118] | 1 to 1000
CCC(C(=O)O)c1ccc(C2(NC(=O)c3cc4c(Cl)c(Cl)c(OC)cc4n3C)CCOC2)cc1 (racemic) [I-23 e82] | 1 to 1000
CCCC(C(=O)O)c1ccc(C2(NC(=O)c3cc4c(Cl)c(Cl)ccc4n3C)COC2)cc1 (racemic) [I-24 e114] | 1 to 1000
Cn1c(C(=O)NC2(c3ccc(C(C(=O)O)C4CCCC4)cc3)COC2)cc2c(Cl)c(Cl)ccc21 (racemic) [I-25 e136, (±)-2-Cyclopentyl-2-[4-[3-[(4,5-dichloro-1-methyl-indole-2-carbonyl)amino]oxetan-3-yl]phenyl]acetic acid] | 1 to 1000
COc1ccc2c(cc(C(=O)NC3(c4ccc(C(C(=O)O)C5CCCC5)cc4)COC3)n2C)c1Cl (racemic) [I-26 e130] | 1 to 1000
COc1cc2c(cc(C(=O)NC3(c4ccc(C(C(=O)O)C(C)C)cc4)COC3)n2C)c(Cl)c1Cl (racemic) [I-29 e135, (±)-2-[4-[3-[(4,5-Dichloro-6-methoxy-1-methyl-indole-2-carbonyl)amino]oxetan-3-yl]phenyl]-3-methyl-butanoic acid] | 1 to 1000
CC(C)C(C(=O)O)c1ccc(C2(NC(=O)c3cc4c(Cl)c(Cl)ccc4n3C)COC2)cc1 (racemic) [I-30 e134] | 1 to 1000
CCCC(C(=O)O)c1ccc(C2(NC(=O)c3cc4c(Cl)c(OC)ccc4n3C)COC2)cc1 (racemic) [I-31 e112] | 1 to 1000
CCCC(C(=O)O)c1ccc(C2(NC(=O)c3cc4c(Cl)c(Cl)c(OC)cc4n3C)COC2)cc1 (racemic) [I-38 e115] | 1 to 1000
COc1ccc2c(cc(C(=O)NC3(c4ccc(C(C)(C)C(=O)O)cc4F)CCOC3)n2C)c1Cl (racemic) [I-39 e81] | 1 to 1000
COc1ccc2c(cc(C(=O)NC3(c4ccc(C(C)C(=O)O)cc4F)CCOC3)n2C)c1Cl (racemic) [I-40 e55] | 1 to 1000
CCC(C(=O)O)c1ccc(C2(NC(=O)c3cc4c(Cl)c(Cl)ccc4n3C)COC2)cc1 (racemic) [I-42 e133] | 1 to 1000

The remaining lines, values ahead:

IC50 [nM] | SMILES
1 to 1000 | CCC(C(=O)O)c1ccc(C2(NC(=O)c3cc4c(Cl)c(OC)ccc4n3C)COC2)cc1 (racemic) [I-43 e126]
1 to 1000 | COc1ccc2c(cc(C(=O)NC3(c4ccc(C(C)C(=O)O)cc4F)COC3)n2C)c1Cl (racemic) [I-49 e60]
1 to 1000 | CC(c1ccc(C2(NC(=O)c3cc4c(Cl)c(Cl)ccc4n3C)CCOC2)cc1)c1nnn[nH]1 (racemic) [I-52 e91]
1 to 1000 | COc1cc2c(cc(C(=O)NC3(c4ccc(C(C)(C)C(=O)O)cc4F)CCOC3)n2C)c(Cl)c1Cl (racemic) [I-53 e80]
1 to 1000 | Cn1c(C(=O)NC2(c3ccc(C(C)(C)C(=O)O)cc3F)CCOC2)cc2c(Cl)c(Cl)ccc21 (racemic) [I-54 e79]
1 to 1000 | COc1cc2c(cc(C(=O)NC3(c4ccc(C(C)C(=O)O)cc4F)CCOC3)n2C)c(Cl)c1Cl (racemic) [I-55 e54]
1 to 1000 | CC(C(=O)O)c1ccc(C2(NC(=O)c3cc4c(Cl)c(Cl)ccc4n3C)CCOC2)c(F)c1 (racemic) [I-57 e53]
1 to 1000 | COc1ccc2c(cc(C(=O)NC3(c4ccc(C5(C(=O)O)CC5)cc4)CCOC3)n2C)c1Cl (racemic) [I-58 e70]
1 to 1000 | Cn1c(C(=O)NC2(c3ccc(C4(C(=O)O)CC4)cc3)CCOC2)cc2c(Cl)c(Cl)ccc21 (racemic) [I-59 e38]
1 to 1000 | COc1ccc2c(cc(C(=O)NC3(c4ccc(C(C)C(=O)O)cc4)CCOC3)n2C)c1Cl (racemic) [I-64 e57]
1 to 1000 | COc1ccc2c(cc(C(=O)NC3(c4ccc(C(C)C(=O)O)cc4)COC3)n2C)c1Cl (racemic) [I-67 e59]
1 to 1000 | CC(C(=O)O)c1ccc(C2(NC(=O)c3cc4c(Cl)c(Cl)ccc4n3C)COC2)cc1 (racemic) [I-68 e58]
1000 to 5000 | Cn1c(C(=O)NC2(c3ccc(CC(=O)O)cc3C#N)CCOC2)cc2c(Cl)c(Cl)ccc21 (racemic) [I-71 e158, (±)-2-[3-Cyano-4-[3-[(4,5-dichloro-1-methyl-indole-2-carbonyl)amino]tetrahydro-furan-3-yl]phenyl]acetic acid]
1 to 1000 | CCC(C(=O)O)c1ccc(C2(NC(=O)c3cc4c(Cl)c(Cl)ccc4n3C)CCOC2)cc1 (racemic) [I-72 e56]
1000 to 5000 | Cn1c(C(=O)NC2(c3ccc(C(=O)O)nc3)CCOC2)cc2c(Cl)c(Cl)ccc21 (racemic) [I-73 e28]
1 to 1000 | Cn1c(C(=O)NC2(c3ccc(C(=O)O)cn3)CCOC2)cc2c(Cl)c(Cl)ccc21 (racemic) [I-74 e27]
1 to 1000 | COc1ccc2c(cc(C(=O)NC3(c4ccc(C(C)(C)C(=O)O)cc4)CCOC3)n2C)c1Cl (racemic) [I-77 e63]
1 to 1000 | COc1ccc2c(cc(C(=O)NC3(c4ccc(CC(=O)O)cc4)CCOC3)n2C)c1Cl (racemic) [I-78 e40]
1 to 1000 | Cn1c(C(=O)NC2(c3ccc(C(=O)O)cc3)CCOC2)cc2c(Cl)c(Cl)c(OCC3COC3)cc21 (racemic) [I-80 e103]
1 to 1000 | Cn1c(C(=O)NC2(c3ccc(C(=O)O)cc3)CCOC2)cc2c(Cl)c(Cl)c(OCc3ncc[nH]3)cc21 (racemic) [I-81 e105]
1 to 1000 | Cn1c(C(=O)NC2(c3ccc(C(C)(C)C(=O)O)cc3)CCOC2)cc2c(Cl)c(Cl)ccc21 (racemic) [I-87 e37]
1000 to 5000 | CCc1cc(C2(NC(=O)c3cc4c(Cl)c(Cl)ccc4n3C)CCOC2)ccc1C(=O)O (racemic) [I-88 e156, (±)-4-[3-[(4,5-Dichloro-1-methyl-indole-2-carbonyl)amino]tetrahydro-furan-3-yl]-2-ethyl-benzoic acid]
1 to 1000 | Cn1c(C(=O)NC2(c3ccc(C(=O)O)cc3)CCOC2)cc2c(Cl)c(Cl)c(OCC3CCOC3)cc21 (racemic) [I-92 e101]
